Each structure is given as a SMILES string.

The test system of the first assay is HBV rcDNA. The experiment in a line: HepDE19 assay with bDNA quantitation of HBV rcDNA. The format is cell-based, hepatitis B virus. Conditions: HepDE19 assay, inhibition of formation of rcDNA; read-out: DE-19bDNA EC50. A digest of the protocol: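 HepDE19 cells (HepG2-derived, Tet-regulated HBV replication) were deprived of tetracycline and then exposed to compounds for 7 days at 37 °C in 0.5% DMSO, 8-point titration from 25 μM. rcDNA was quantified by bDNA and EC50/EC90 came from 4-parameter fits. CC50 was measured by CellTiter-Glo ATP content on replicate plates after 4 days.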
One may read the EC50 as the midpoint of the concentration-response curve. With `CC(c1cnc(NCc2cn[nH]n2)c2ccccc12)N(C)C(=O)Nc1ccc(F)c(Cl)c1` (single isomer, unassigned) [Compound 261, 1-(1-(1-(((2H-1,2,3-Triazol-4-yl)methyl)amino)isoquinolin-4-yl)ethyl)-3-(3-chloro-4-fluorophenyl)-1-methylurea], the EC50 was found to be 6.1 µM.

With `CC(c1cnc(NCc2cn[nH]n2)c2ccccc12)N(C)C(=O)Nc1ccc(F)c(Cl)c1` (single isomer, unassigned) [Compound 262, 1-(1-(1-(((2H-1,2,3-Triazol-4-yl)methyl)amino)isoquinolin-4-yl)ethyl)-3-(3-chloro-4-fluorophenyl)-1-methylurea], the EC50 came to 0.15 µM.

On to `CC(c1c[nH]c(=O)c2cc(F)ccc12)N(C)C(=O)Nc1ccc(F)c(Cl)c1` (single isomer, unassigned) [Compound 263, 3-(3-Chloro-4-fluorophenyl)-1-(1-(7-fluoro-1-oxo-1,2-dihydroisoquinolin-4-yl)ethyl)-1-methylurea], for which the EC50 stood at 0.78 µM.

`CC(c1c[nH]c(=O)c2cc(F)ccc12)N(C)C(=O)Nc1ccc(F)c(Cl)c1` (single isomer, unassigned) [Compound 264, 3-(3-Chloro-4-fluorophenyl)-1-(1-(7-fluoro-1-oxo-1,2-dihydroisoquinolin-4-yl)ethyl)-1-methylurea]: the EC50 was determined as 0.019 µM.

`CC(c1c[nH]c(=O)c2ccccc12)N(Cc1c[nH]nn1)C(=O)Nc1ccc(F)c(Cl)c1` (single isomer, unassigned) [Compound 266, 1-((2H-1,2,3-Triazol-4-yl)methyl)-3-(3-chloro-4-fluorophenyl)-1-(1-(1-oxo-1,2-dihydroisoquinolin-4-yl)ethyl)urea]: the EC50 stood at 12 µM.

In the case of `CC(c1c[nH]c(=O)c2ccccc12)N(Cc1c[nH]nn1)C(=O)Nc1ccc(F)c(Cl)c1` (single isomer, unassigned) [Compound 267, 1-((2H-1,2,3-Triazol-4-yl)methyl)-3-(3-chloro-4-fluorophenyl)-1-(1-(1-oxo-1,2-dihydroisoquinolin-4-yl)ethyl)urea], the EC50 came out at 0.35 µM.

As for `CC(c1cn(Cc2nc[nH]n2)c(=O)c2ccccc12)N(C)C(=O)Nc1ccc(F)c(Cl)c1` (single isomer, unassigned) [Compound 269, 1-(1-(2-((1H-1,2,4-Triazol-3-yl)methyl)-1-oxo-1,2-dihydroisoquinolin-4-yl)ethyl)-3-(3-chloro-4-fluorophenyl)-1-methylurea], the EC50 stood at 0.56 µM.

For the compound `CC(c1cn(Cc2nc[nH]n2)c(=O)c2ccccc12)N(C)C(=O)Nc1ccc(F)c(Cl)c1` (single isomer, unassigned) [Compound 270, 1-(1-(2-((1H-1,2,4-Triazol-3-yl)methyl)-1-oxo-1,2-dihydroisoquinolin-4-yl)ethyl)-3-(3-chloro-4-fluorophenyl)-1-methylurea], the EC50 stood at 22 µM.

`CC(c1c[nH]c(=O)c2ccccc12)N(CC1COC(C)(C)OC1)C(=O)Nc1ccc(F)c(Cl)c1` (single isomer, unassigned) [Compound 272, 3-(3-Chloro-4-fluorophenyl)-1-((2,2-dimethyl-1,3-dioxan-5-yl)methyl)-1-(1-(1-oxo-1,2-dihydroisoquinolin-4-yl)ethyl)urea]: the EC50 was determined as 1.8 µM.

`CC(c1c[nH]c(=O)c2ccccc12)N(CC1COC(C)(C)OC1)C(=O)Nc1ccc(F)c(Cl)c1` (single isomer, unassigned) [Compound 273, 3-(3-Chloro-4-fluorophenyl)-1-((2,2-dimethyl-1,3-dioxan-5-yl)methyl)-1-(1-(1-oxo-1,2-dihydroisoquinolin-4-yl)ethyl)urea]: the EC50 worked out at 0.17 µM.

As to `CC(c1cn(Cc2c[nH]nn2)c(=O)c2ccccc12)N(C)C(=O)Nc1ccc(F)c(Cl)c1` (single isomer, unassigned) [Compound 276, 1-(1-(2-((1H-1,2,3-Triazol-4-yl)methyl)-1-oxo-1,2-dihydroisoquinolin-4-yl)ethyl)-3-(3-chloro-4-fluorophenyl)-1-methylurea], the EC50 came to 2.7 µM.

With `CC(c1cn(Cc2c[nH]nn2)c(=O)c2ccccc12)N(C)C(=O)Nc1ccc(F)c(Cl)c1` (single isomer, unassigned) [Compound 277, 1-(1-(2-((1H-1,2,3-Triazol-4-yl)methyl)-1-oxo-1,2-dihydroisoquinolin-4-yl)ethyl)-3-(3-chloro-4-fluorophenyl)-1-methylurea], the EC50 is 0.79 µM.

Staying with this assay, now noted: HepDE19 assay, inhibition of formation of relaxed circular DNA (rcDNA), bDNA quantitation; read-out: DE-19bDNA EC50.
With `CC(c1c[nH]c(=O)c2ccc(F)cc12)N(CC1COC(C)(C)OC1)C(=O)Nc1ccc(F)c(Cl)c1` (single isomer, unassigned) [Compound 282, 3-(3-Chloro-4-fluorophenyl)-1-((2,2-dimethyl-1,3-dioxan-5-yl)methyl)-1-(1-(6-fluoro-1-oxo-1,2-dihydroisoquinolin-4-yl)ethyl)urea], the EC50 was 4 µM.

On to `CC(c1c[nH]c(=O)c2ccc(F)cc12)N(CC1COC(C)(C)OC1)C(=O)Nc1ccc(F)c(Cl)c1` (single isomer, unassigned) [Compound 283, 3-(3-Chloro-4-fluorophenyl)-1-((2,2-dimethyl-1,3-dioxan-5-yl)methyl)-1-(1-(6-fluoro-1-oxo-1,2-dihydroisoquinolin-4-yl)ethyl)urea], for which the EC50 was determined as 0.043 µM.

`CC(c1c[nH]c(=O)c2cc(F)c(F)cc12)N(C)C(=O)Nc1ccc(F)cc1` (single isomer, unassigned) [Compound 285, 1-(1-(6,7-Difluoro-1-oxo-1,2-dihydroisoquinolin-4-yl)ethyl)-3-(4-fluorophenyl)-1-methylurea]: the EC50 was determined as 4.3 µM.

For the compound `CC(c1c[nH]c(=O)c2cc(F)c(F)cc12)N(C)C(=O)Nc1ccc(F)cc1` (single isomer, unassigned) [Compound 286, 1-(1-(6,7-Difluoro-1-oxo-1,2-dihydroisoquinolin-4-yl)ethyl)-3-(4-fluorophenyl)-1-methylurea], the EC50 is 0.02 µM.

`CC(C)CN(C(=O)Nc1ccc(F)cc1)C(C)c1c[nH]c(=O)c2cc(F)c(F)cc12` (single isomer, unassigned) [Compound 287, 1-(1-(6,7-Difluoro-1-oxo-1,2-dihydroisoquinolin-4-yl)ethyl)-3-(4-fluorophenyl)-1-isobutylurea]: the EC50 is 1.5 µM.

Still in this assay, the particulars now being: Hepatitis B virus, HepDE19, HepDE19 assay, inhibition of formation of rcDNA; read-out: DE-19bDNA EC50.
`COc1cccc2c(=O)[nH]cc(C(C)N(C)C(=O)Nc3ccc(F)c(Cl)c3)c12` (single isomer, unassigned) [Compound 265, 3-(3-chloro-4-fluorophenyl)-1-(1-(5-methoxy-1-oxo-1,2-dihydroisoquinolin-4-yl)ethyl)-1-methylurea]: the EC50 came out at 1.5 µM.

With `CC(c1c[nH]c(=O)c2ccccc12)N(Cc1nnc[nH]1)C(=O)Nc1ccc(F)c(Cl)c1` (single isomer, unassigned) [Compound 268, 1-((1H-1,2,4-Triazol-5-yl)methyl)-3-(3-chloro-4-fluorophenyl)-1-(1-(1-oxo-1,2-dihydroisoquinolin-4-yl)ethyl)urea], the EC50 stood at 2.6 µM.

Regarding `CC(c1c[nH]c(=O)c2ccccc12)N(CC1COC(C)(C)OC1)C(=O)Nc1ccc(F)cc1` (single isomer, unassigned) [Compound 274, 3-(4-Fluorophenyl)-1-((2,2-dimethyl-1,3-dioxan-5-yl)methyl)-1-(1-(1-oxo-1,2-dihydroisoquinolin-4-yl)ethyl)urea], the EC50 was 1.8 µM.

`CC(c1c[nH]c(=O)c2cc(F)c(F)cc12)N(C)C(=O)Nc1ccc(F)c(Cl)c1` (single isomer, unassigned) [Compound 278, 3-(3-Chloro-4-fluorophenyl)-1-(1-(6,7-difluoro-1-oxo-1,2-dihydroisoquinolin-4-yl)ethyl)-1-methylurea]: the EC50 stood at 1 µM.

On to `CC(C)CN(C(=O)Nc1ccc(F)c(Cl)c1)C(C)c1c[nH]c(=O)c2cc(F)c(F)cc12` (single isomer, unassigned) [Compound 280, 3-(3-Chloro-4-fluorophenyl)-1-(1-(6,7-difluoro-1-oxo-1,2-dihydroisoquinolin-4-yl)ethyl)-1-isobutylurea], for which the EC50 stood at 0.21 µM.

The assay is the same for the next values; noted with them: Hepatitis B virus, HepDE19, HepDE19 assay, inhibition of formation of relaxed circular DNA (rcDNA), bDNA quantitation; read-out: DE-19bDNA EC50.
Consider `CC(C)CN(C(=O)Nc1ccc(F)c(Cl)c1)C(C)c1c[nH]c(=O)c2cc(F)c(F)cc12` (single isomer, unassigned) [Compound 281, 3-(3-Chloro-4-fluorophenyl)-1-(1-(6,7-difluoro-1-oxo-1,2-dihydroisoquinolin-4-yl)ethyl)-1-isobutylurea], for which the EC50 amounted to 0.002 µM.

As for `CC(c1c[nH]c(=O)c2ccccc12)N(CC(CO)CO)C(=O)Nc1ccc(F)c(Cl)c1` (single isomer, unassigned) [Compound 284, 3-(3-Chloro-4-fluorophenyl)-1-(3-hydroxy-2-(hydroxymethyl)propyl)-1-(1-(1-oxo-1,2-dihydroisoquinolin-4-yl)ethyl)urea], the 50% effective concentration (EC50) was 0.092 µM.

Staying with this assay, now noted: Hepatitis B virus, HepDE19, read-out: DE-19bDNA EC50 (μM), HepDE19 assay, inhibition of formation of rcDNA.
In the case of `CC(c1c[nH]c(=O)c2ccccc12)N(CC1COC(C)(C)OC1)C(=O)Nc1ccccc1` (single isomer, unassigned) [Compound 275, 1-((2,2-Dimethyl-1,3-dioxan-5-yl)methyl)-1-(1-(1-oxo-1,2-dihydroisoquinolin-4-yl)ethyl)-3-phenylurea], the EC50 came to 0.83 µM.

Still in this assay, the particulars now being: read-out: DE-19bDNA EC50; HepDE19 assay, inhibition of formation of rcDNA.
Turning to `CC(c1c[nH]c(=O)c2cc(F)c(F)cc12)N(C)C(=O)Nc1ccc(F)c(Cl)c1` (single isomer, unassigned) [Compound 279, 3-(3-Chloro-4-fluorophenyl)-1-(1-(6,7-difluoro-1-oxo-1,2-dihydroisoquinolin-4-yl)ethyl)-1-methylurea], the EC50 worked out at 0.007 µM.

The values are drawn from US20230045421A1 (priority 2018, published 2023).
